Results published in PubChem BioAssay AID1902 (Broad Institute, 2009).
The source made the active and inactive calls.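 Rule for the calls: active = EC50 no more than a set limit of log units above the highest dose; inactive = the rest.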

Molecular target: S. pyogenes SKKanGAS, kanamycin survival, BacTiterGlo, 6 h
Assay: SKKanGAS survival reduction under kanamycin, dose response, streptokinase promoter inhibitor project, SKKanGAS strain, luminescence, dose confirmation (AID 1902);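 note: lower survival reflects blocked streptokinase promoter driving kanamycin resistance gene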

`CN(CC1CCCO1)S(=O)(=O)c1ccc(C(=O)Nc2ccccc2F)cc1` (stereo not drawn) was tested. Which EC50 did it give?
The EC50 was > 15 µM (inactive).

Which EC50 does the source give for `Cc1ccc(/C=C2/Sc3ccc(C(=O)N4CCN(C)CC4)cc3NC2=O)cc1` here?
The EC50 was 13.4 µM.

Which EC50 does the source give for `O=C(N/N=C/c1c(O)n(C2CCCCC2)c(=S)[nH]c1=O)c1ccccc1O` here?
The EC50 was 0.601 µM.

For `CCN(CC)c1nc(Nc2ccc([N+](=O)[O-])cc2)nc(N(CC)CC)n1`, which EC50 is on record?
The EC50 was 3.15 µM.

For `Cc1ccc(C(C)C)cc1OCC(=O)Nc1ccccc1N1CCCC1`, which EC50 is on record?
Its EC50 is 3.56 µM.

`Cc1cccc(N=Nc2c(C)nn(-c3ccccc3)c2N)c1C` was tested. Which EC50 did it give?
The EC50 was 11.8 µM.

For `CCN(CC)c1ccc(/C=N/Nc2nc3ccccc3[nH]2)c(O)c1`, which EC50 is on record?
Its EC50 is 3.17 µM.

`CCSc1nnc(NC(=O)c2ccc3ccccc3n2)s1` was tested. Which EC50 did it give?
Its EC50 is 2.53 µM.

For `Cn1c(C(=O)N2CCN(c3ccc([N+](=O)[O-])cc3)CC2)cc2c(=O)[nH]c3ccccc3c21`, which EC50 is on record?
Its EC50 is 4.56 µM.

`O=C(Cc1ccccc1)NNC(=S)NC(=O)c1cccs1` was tested. Which EC50 did it give?
Its EC50 is 3.83 µM.

Which EC50 does the source give for `CCOC(=O)c1ccc(NC(=O)c2nc(S(=O)(=O)Cc3ccccc3)ncc2Cl)cc1` here?
Its EC50 is 9 µM.

`O=C(OCc1ccc(COC(=O)c2ccc(O)cc2)cc1)c1ccc(O)cc1` was tested. Which EC50 did it give?
The EC50 was 2.21 µM.

With `O=C(Nc1nnc(C2=COCCO2)o1)c1ccc(Br)cc1` as the compound, how does the EC50 read?
The EC50 was 0.78 µM.

How did the EC50 turn out when `CCc1cc(C(=O)N2CCCC(CCC(=O)NCc3cccc(OC)c3)C2)no1` (stereo not drawn) was run?
Its EC50 is > 15 µM (inactive).

How did the EC50 turn out when `C[C@H]1c2cccc(O)c2C(O)=C2C(=O)[C@]3(O)C(O)=C(C(N)=O)C(=O)[C@@H](N(C)C)C3[C@@H](O)C21` (stereo partly drawn) was run?
Its EC50 is < 0.06 µM.

For `Cc1nn(-c2ccccc2)c2sc(-c3n[nH]c(=S)o3)cc12`, which EC50 is on record?
Its EC50 is 3.99 µM.

For `CCN(CCn1cccn1)C(=O)CC1C(=O)NCCN1CCc1ccccc1` (stereo not drawn), which EC50 is on record?
The EC50 was > 15 µM (inactive).

`O=C(Nc1cccc(S(=O)(=O)Nc2ccc(Cl)cc2)c1)c1cc2c(s1)CCCC2` was tested. Which EC50 did it give?
The EC50 was 1.3 µM.

With `Oc1c(CN2CCCCC2)cc(Br)c2cccnc12` as the compound, how does the EC50 read?
The EC50 was 1.12 µM.

With `Cc1ccc(Oc2ccc3c(c2)C(=O)N(c2ccc(S(=O)(=O)Nc4nccs4)cc2)C3=O)cc1` as the compound, how does the EC50 read?
The EC50 was 3.06 µM.

How did the EC50 turn out when `O=C(NNc1nc(-c2ccc(F)cc2)cs1)c1ccccc1` was run?
Its EC50 is 2.17 µM.

With `Cc1ccc(C(c2cc(Cl)c3cccnc3c2O)N2CCN(C)CC2)cc1` (stereo not drawn) as the compound, how does the EC50 read?
Its EC50 is 1.84 µM.

For `Oc1cccc2ccc(/C=C/c3ccccc3Cl)nc12`, which EC50 is on record?
The EC50 was 0.248 µM.

With `CC(=O)OCC1=C(C(=O)O)N2C(=O)C(NC(=O)c3ccc(F)cc3)C2SC1` (stereo not drawn) as the compound, how does the EC50 read?
The EC50 was 2.9 µM.

`O=C1N/C(=N\N=C\c2cccnc2)SC1Cc1ccc(SC(F)F)cc1` (stereo not drawn) was tested. Which EC50 did it give?
Its EC50 is 3.08 µM.

How did the EC50 turn out when `FC(F)(F)c1ccccc1/C=N/n1c(C2CCCCC2)n[nH]c1=S` was run?
The EC50 was 4.76 µM.

`S=c1nc(SCc2ccccc2)[nH]c2ccccc12` was tested. Which EC50 did it give?
The EC50 was 3.19 µM.

For `O=C(NC(NC(=S)Nc1cccc(Cl)c1)C(Cl)(Cl)Cl)OCc1ccccc1` (stereo not drawn), which EC50 is on record?
Its EC50 is 1.78 µM.

For `CCCCCCCCCCCC(=O)c1c(O)cccc1O`, which EC50 is on record?
Its EC50 is 1.58 µM.

Which EC50 does the source give for `N#CC(C(=O)C12CC3CC(CC(C3)C1)C2)c1nc2ccccc2[nH]1` (stereo not drawn) here?
Its EC50 is 3.23 µM.

For `O=C(CNc1ccccc1)N/N=C/c1c(O)ccc2ccccc12`, which EC50 is on record?
Its EC50 is 0.74 µM.

Which EC50 does the source give for `O=C(Oc1ccc(NC2=C(Cl)C(=O)c3ccccc3C2=O)cc1)c1ccc([N+](=O)[O-])cc1` here?
The EC50 was 7.48 µM.

With `CCCCC(CC)C(=O)Oc1ccc(O)c(C(C)(C)C)c1` (stereo not drawn) as the compound, how does the EC50 read?
Its EC50 is 2.89 µM.

`Cc1ccc(NC2=NCC(Cc3ccc(Br)cc3)S2)cc1` (stereo not drawn) was tested. Which EC50 did it give?
The EC50 was 0.557 µM.

Which EC50 does the source give for `Cc1c(CCOC(=O)C2C3CC4CC(C3)CC2C4)sc[n+]1CC(=O)c1ccc(Br)cc1` (stereo not drawn) here?
Its EC50 is 7.28 µM.

With `Oc1ccc(Cl)cc1-c1cc(-c2cccc(Br)c2)n[nH]1` as the compound, how does the EC50 read?
The EC50 was 3.62 µM.

How did the EC50 turn out when `Cc1csc2nc(CSc3nc4ccccc4o3)c(Br)n12` was run?
Its EC50 is 6.42 µM.

For `O=C1NC(=Nc2ccc(Cl)cc2)SC1Cc1cc(Cl)ccc1Cl` (stereo not drawn), which EC50 is on record?
The EC50 was 2.97 µM.

`COc1ccc2c(c1)c(CC(=O)NCc1cc([N+](=O)[O-])ccc1O)c(C)n2C(=O)c1ccc(Cl)cc1` was tested. Which EC50 did it give?
The EC50 was 9.89 µM.

For `Cc1ccccc1OCC(=O)Nc1ccccc1N1CCC(C)CC1`, which EC50 is on record?
Its EC50 is 7.48 µM.

For `CCCCc1nc2cc(C(=O)N3CCC(OCCOC)CC3)ccc2o1`, which EC50 is on record?
The EC50 was > 15 µM (inactive).

For `O=C(Nc1nnc(SCc2ccccc2Cl)s1)C1COc2ccccc2O1` (stereo not drawn), which EC50 is on record?
Its EC50 is 7.21 µM.

How did the EC50 turn out when `CC(C)(C)c1ccc(S(=O)(=O)N2CCC(c3nc4ccc(Cl)cc4[nH]3)CC2)cc1` was run?
The EC50 was 5.11 µM.

Which EC50 does the source give for `CC(=O)O[C@H]1C[C@@]2(C)[C@@H](C[C@@H](O)[C@H]3[C@@]4(C)CC[C@@H](O)[C@@H](C)C4CC[C@@]32C)/C1=C(\CCC=C(C)C)C(=O)O` (stereo partly drawn) here?
The EC50 was 1.58 µM.

Which EC50 does the source give for `O=C1C(Nc2ccccc2)=C/C(=N/S(=O)(=O)c2cccs2)c2ccccc21` here?
Its EC50 is 1.33 µM.

With `O=C(O)CCn1cc(/C=C/C(=O)c2ccc(Cl)cc2)c(-c2cccc(Br)c2)n1` as the compound, how does the EC50 read?
Its EC50 is 3.68 µM.

`O=C(NNC(=O)c1ccccc1OCc1ccc(F)cc1)c1ccccc1O` was tested. Which EC50 did it give?
The EC50 was 2.5 µM.

Which EC50 does the source give for `CC(C)=CCc1c(O)cc2c(c1O)C(=O)CC(c1ccc(O)cc1)O2` (stereo not drawn) here?
The EC50 was 6.08 µM.

`N#C/C(=C(/O)Cc1cccc2ccccc12)c1nc2ccccc2s1` was tested. Which EC50 did it give?
The EC50 was 1.36 µM.

With `O=C(CCc1ccccc1)NNC(=S)NC(=O)c1ccc(Cl)cc1` as the compound, how does the EC50 read?
The EC50 was 0.203 µM.

`COc1ccc(OC)c(/C=C/c2ccc3cccc(O)c3n2)c1` was tested. Which EC50 did it give?
The EC50 was 0.197 µM.

For `N#C/C(=N\Nc1ccc(S(=O)(=O)N2CCc3ccccc32)cc1)C(N)=S`, which EC50 is on record?
Its EC50 is 11.3 µM.

Which EC50 does the source give for `c1ccc(-c2nc(-c3nccc4ccccc34)oc2-c2ccccc2)cc1` here?
Its EC50 is 3.52 µM.
